Results on 45 compounds are retold here after US10150728B2, “Alkylene derivatives” (Shionogi & Co., Ltd., priority 2013, dated 2018).

recombinant human ACC2, sequence (O00763 27-2458): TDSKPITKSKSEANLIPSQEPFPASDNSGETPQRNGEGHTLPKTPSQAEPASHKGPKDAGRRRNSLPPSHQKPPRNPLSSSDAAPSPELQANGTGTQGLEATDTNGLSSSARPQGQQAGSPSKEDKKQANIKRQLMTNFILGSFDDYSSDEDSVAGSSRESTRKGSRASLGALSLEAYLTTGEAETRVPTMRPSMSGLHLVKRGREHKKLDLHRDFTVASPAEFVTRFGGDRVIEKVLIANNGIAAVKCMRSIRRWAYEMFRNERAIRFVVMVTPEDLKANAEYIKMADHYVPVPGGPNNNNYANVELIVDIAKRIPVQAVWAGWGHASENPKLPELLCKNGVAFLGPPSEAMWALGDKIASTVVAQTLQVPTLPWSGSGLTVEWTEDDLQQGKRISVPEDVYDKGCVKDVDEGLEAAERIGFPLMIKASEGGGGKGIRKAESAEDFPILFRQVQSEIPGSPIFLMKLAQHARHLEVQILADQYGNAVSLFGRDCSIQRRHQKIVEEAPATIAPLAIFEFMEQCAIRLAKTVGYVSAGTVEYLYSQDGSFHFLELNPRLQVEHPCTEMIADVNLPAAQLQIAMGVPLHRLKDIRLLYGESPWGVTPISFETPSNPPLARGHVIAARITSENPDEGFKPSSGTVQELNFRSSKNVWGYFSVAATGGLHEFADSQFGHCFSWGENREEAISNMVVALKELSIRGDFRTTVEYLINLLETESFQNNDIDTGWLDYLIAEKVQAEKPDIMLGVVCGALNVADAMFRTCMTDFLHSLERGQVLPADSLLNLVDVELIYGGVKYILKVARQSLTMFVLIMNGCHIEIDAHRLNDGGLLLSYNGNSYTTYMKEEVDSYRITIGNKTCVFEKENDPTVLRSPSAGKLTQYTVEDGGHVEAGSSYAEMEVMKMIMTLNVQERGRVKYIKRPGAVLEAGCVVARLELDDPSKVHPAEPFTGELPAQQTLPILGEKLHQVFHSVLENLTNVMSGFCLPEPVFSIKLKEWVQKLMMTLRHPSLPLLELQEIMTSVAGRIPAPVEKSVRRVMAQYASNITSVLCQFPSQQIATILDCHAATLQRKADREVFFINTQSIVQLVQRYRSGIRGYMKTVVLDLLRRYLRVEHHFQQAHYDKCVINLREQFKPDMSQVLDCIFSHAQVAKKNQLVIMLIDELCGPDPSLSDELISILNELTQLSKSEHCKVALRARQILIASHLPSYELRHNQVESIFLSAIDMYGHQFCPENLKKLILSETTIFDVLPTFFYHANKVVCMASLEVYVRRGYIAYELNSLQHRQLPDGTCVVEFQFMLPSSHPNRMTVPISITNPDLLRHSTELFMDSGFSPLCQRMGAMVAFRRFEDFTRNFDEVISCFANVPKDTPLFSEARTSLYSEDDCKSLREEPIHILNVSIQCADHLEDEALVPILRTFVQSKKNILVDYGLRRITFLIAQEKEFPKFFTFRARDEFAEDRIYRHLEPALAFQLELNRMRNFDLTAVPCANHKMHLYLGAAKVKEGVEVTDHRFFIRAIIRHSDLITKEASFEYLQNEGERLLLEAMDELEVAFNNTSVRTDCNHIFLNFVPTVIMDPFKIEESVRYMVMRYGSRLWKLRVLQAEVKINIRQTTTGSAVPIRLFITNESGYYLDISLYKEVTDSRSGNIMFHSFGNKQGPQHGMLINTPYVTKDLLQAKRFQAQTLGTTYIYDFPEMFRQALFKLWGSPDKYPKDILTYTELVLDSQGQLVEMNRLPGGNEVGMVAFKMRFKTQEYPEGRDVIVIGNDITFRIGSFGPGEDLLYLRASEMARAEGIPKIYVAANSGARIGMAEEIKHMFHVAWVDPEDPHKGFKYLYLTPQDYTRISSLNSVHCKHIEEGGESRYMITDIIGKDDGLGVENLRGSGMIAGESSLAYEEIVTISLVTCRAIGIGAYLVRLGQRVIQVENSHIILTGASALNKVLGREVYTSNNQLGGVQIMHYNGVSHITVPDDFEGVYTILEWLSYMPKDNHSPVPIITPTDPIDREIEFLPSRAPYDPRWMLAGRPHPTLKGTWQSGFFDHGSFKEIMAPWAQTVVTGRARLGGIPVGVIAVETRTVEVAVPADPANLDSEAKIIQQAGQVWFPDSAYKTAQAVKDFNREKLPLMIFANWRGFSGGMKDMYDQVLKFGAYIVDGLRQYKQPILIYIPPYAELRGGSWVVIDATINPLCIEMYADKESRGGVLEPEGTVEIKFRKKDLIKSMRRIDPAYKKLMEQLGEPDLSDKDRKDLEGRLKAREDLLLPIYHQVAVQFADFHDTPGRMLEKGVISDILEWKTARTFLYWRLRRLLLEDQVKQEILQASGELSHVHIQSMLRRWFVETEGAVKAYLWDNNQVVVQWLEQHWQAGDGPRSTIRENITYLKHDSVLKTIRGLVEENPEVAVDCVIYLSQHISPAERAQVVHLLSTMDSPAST

The assay addresses recombinant human ACC2 (Homo sapiens (Human), UniProt O00763). Kind of assay: Measurement of inhibitory activity on human ACC2 (MALDI-TOF MS, acetyl CoA to malonyl CoA conversion). The format is biochemical. The conditions noted are these: Tables 155-159. Summed up: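 His-tagged human ACC2 (residues 27–2458) from baculovirus-infected Sf-9 cells was preincubated 1 h in pH 7.4 HEPES-KOH buffer with MgCl2, 6-10 mM potassium citrate, glutathione and BSA. Substrate solution held 1 mM ATP, 0.8 mM acetyl CoA and 25-50 mM bicarbonate. After 1–3 h at room temperature, malonyl CoA/(malonyl+acetyl CoA) was read by negative-mode MALDI-TOF MS; citrate, bicarbonate and time varied by enzyme lot.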
On to `CC(=O)N[C@@H](C)CC[C@@H]1CC[C@@H](Oc2nc3c(F)cc(OCC(F)F)c(F)c3n2C)CO1` [Compound I-627], for which the IC50 (usually the point on the concentration scale where inhibition reaches its midpoint) was determined as 5 nM.

As for `C[C@@H](CO[C@H]1CC[C@H](Oc2nc3c(F)cc(OCC(F)F)c(F)c3n2C)CC1)NC(=O)CO` [Compound I-628], the IC50 worked out at 59 nM.

For `C[C@@H](CO[C@H]1CC[C@H](Oc2nc3c(F)cc(OCC(F)F)c(F)c3n2C)CC1)NC(=O)c1cnn(C)c1` [Compound I-629], the IC50 was 98 nM.

Take `CC(=O)N[C@@H](C)CO[C@H]1CC[C@H](Oc2nc3c(F)cc(F)c(F)c3n2C)CC1` [Compound I-630]: the IC50 was found to be 25 nM.

Regarding `C[C@@H](CO[C@H]1CC[C@H](Oc2nc3c(F)cc(OCC(F)F)c(F)c3n2C)CC1)NC(=O)N(C)C` [Compound I-631], the IC50 turned out to be 10 nM.

Regarding `CC(=O)N[C@@H](C)CO[C@H]1CC[C@H](Oc2nc3c(C)nc(OC4CC4)c(F)c3n2C)CC1` [Compound I-632], the IC50 came to 19 nM.

For `CC(=O)N[C@@H](C)CO[C@H]1CC[C@H](Oc2nc3cnc(OCc4ccccc4)c(F)c3n2C)CC1` [Compound I-634], the IC50 stood at 34 nM.

As for `CCOc1cc(F)c2c(nc(O[C@H]3CC[C@H](OC[C@H](C)NC(C)=O)CC3)n2C)c1F` [Compound I-635], the IC50 worked out at 104 nM.

With `CC(=O)N[C@@H](C)CC[C@H]1CC[C@H](Oc2nc3cnc(OC4CC4)c(Cl)c3n2C)CC1` [Compound I-636], the IC50 is 4 nM.

`CC(=O)N[C@@H](C)CO[C@H]1CC[C@H](Oc2nc3c(F)cc(OCC(F)F)c(Cl)c3n2C)CC1` [Compound I-637]: the IC50 worked out at 4 nM.

Regarding `CC(=O)N[C@@H](C)CO[C@H]1CC[C@H](Oc2nc3c(Cl)ccc(F)c3n2C)CC1` [Compound I-638], the IC50 was determined as 140 nM.

Turning to `CC(=O)N[C@@H](C)CO[C@H]1CC[C@H](Oc2nc3c(F)cc(OC4CCC4)c(F)c3n2C)CC1` [Compound I-639], the IC50 stood at 2 nM.

On to `C[C@@H](CO[C@H]1CC[C@H](Oc2nc3c(F)cc(OCC(F)F)c(F)c3n2C)CC1)NC(=O)COC(N)=O` [Compound I-640], for which the IC50 was 110 nM.

As for `CCOc1cc2c(nc(O[C@H]3CC[C@H](OC[C@H](C)NC(C)=O)CC3)n2C)c(F)n1` [Compound I-641], the IC50 turned out to be 73 nM.

In the case of `CC(=O)N[C@@H](C)CC[C@H]1CC[C@H](Oc2nc3c(F)cc(OCC(F)F)c(F)c3n2C)CO1` [Compound I-642], the IC50 was determined as 7 nM.

As for `CC(=O)N[C@@H](C)C(F)(F)C[C@@H]1CC[C@@H](Oc2nc3c(F)cc(OCC(F)F)c(F)c3n2C)CO1` [Compound I-643], the IC50 was found to be 250 nM.

Take `CC(=O)N[C@@H](C)CC[C@H]1OC[C@H](Oc2nc3cnc(OCC(F)F)c(Cl)c3n2C)C[C@@H]1C` [Compound I-644]: the IC50 was found to be 26 nM.

Turning to `CCOc1ncc2nc(O[C@H]3CC[C@H](OC[C@H](C)NC(C)=O)CC3)n(C)c2c1Cl` [Compound I-646], the IC50 was 15 nM.

As for `CC(=O)N[C@@H](C)CO[C@H]1CC[C@H](Oc2nc3cnc(OC(C)C)c(Cl)c3n2C)CC1` [Compound I-647], the IC50 was 6 nM.

As to `CC(=O)N[C@@H](C)CO[C@H]1CC[C@H](Oc2nc3c(Cl)cc(C4CC4)cc3n2C)CC1` [Compound I-648], the IC50 was 110 nM.

As for `CC(=O)N[C@@H](C)CO[C@H]1CC[C@H](Oc2nc3c(Cl)cc(Oc4ccccc4)cc3n2C)CC1` [Compound I-649], the IC50 is 9 nM.

`CC(=O)N[C@@H](C)CO[C@H]1CC[C@H](Oc2nc3c(C4CC4)cc(OCC(F)F)cc3n2C)CC1` [Compound I-650]: the 50% inhibitory concentration (IC50) came out at 375 nM.

On to `CCOc1cc(Cl)c2nc(O[C@H]3CC[C@H](OC[C@H](C)NC(C)=O)CC3)n(C)c2c1F` [Compound I-651], for which the IC50 amounted to 4 nM.

In the case of `CC(=O)N[C@@H](C)CO[C@H]1CC[C@H](Oc2nc3c(F)cc(OCc4ccccc4)c(F)c3n2C)CC1` [Compound I-652], the IC50 stood at 7 nM.

Take `CC(=O)N[C@@H](C)CO[C@H]1CC[C@H](Oc2nc3c(C#N)cc(OCC(F)F)c(F)c3n2C)CC1` [Compound I-653]: the IC50 amounted to 65 nM.

As for `CC(=O)N[C@@H](C)CO[C@H]1CC[C@H](Oc2nc3c(F)cc(OC4CC4)c(Cl)c3n2C)CC1` [Compound I-655], the IC50 was determined as 2 nM.

For the compound `C[C@@H](CO[C@H]1CC[C@H](Oc2nc3c(F)cc(OCC(F)F)c(F)c3n2C)CC1)NC(=O)c1cn[nH]c1` [Compound I-656], the IC50 came out at 39 nM.

With `CC(=O)N[C@@H](C)CC[C@H]1CC[C@H](Oc2nc3cnc(OCC(F)F)c(Cl)c3n2C)CO1` [Compound I-657], the IC50 worked out at 14 nM.

For the compound `CC(=O)N[C@@H](C)CO[C@H]1CC[C@H](Oc2nc3cc(F)c(OCC(F)F)c(F)c3n2C)CC1` [Compound I-658], the IC50 came to 4 nM.

`CC(=O)N[C@@H](C)[C@H](C)O[C@H]1CC[C@H](Oc2nc3c(F)cc(OCC(F)F)c(F)c3n2C)CC1` [Compound I-659]: the IC50 came out at 23 nM.

`CCOc1ccc2nc(O[C@H]3CC[C@H](OC[C@H](C)NC(C)=O)CC3)n(C)c2c1-c1ccccc1` [Compound I-661]: the IC50 is 457 nM.

`CC(=O)N[C@@H](C)CO[C@H]1CC[C@H](Oc2nc3cnc(OCC4CC4)c(Cl)c3n2C)CC1` [Compound I-662]: the IC50 is 5 nM.

As for `CC(=O)N[C@@H](C)CO[C@H]1CC[C@H](Oc2nc3c(C#N)cc(C4CC4)cc3n2C)CC1` [Compound I-663], the IC50 stood at 700 nM.

On to `CC(=O)N[C@@H](C)CO[C@H]1CC[C@H](Oc2nc3cnc(OC4(C)CC4)c(Cl)c3n2C)CC1` [Compound I-664], for which the IC50 was 11 nM.

In the case of `CCOc1cc(F)c2nc(O[C@H]3CC[C@H](OC[C@H](C)NC(C)=O)CC3)n(C)c2c1F` [Compound I-665], the half-maximal inhibitory concentration (IC50) worked out at 4 nM.

`COc1cc(OCc2ccccc2)cc2c1nc(O[C@H]1CC[C@H](OC[C@H](C)NC(C)=O)CC1)n2C` [Compound I-666]: the half-maximal inhibitory concentration (IC50) was 298 nM.

With `CC(=O)N[C@@H](C)CO[C@H]1CC[C@H](Oc2nc3cnc(OC4CC4)c(F)c3n2C)CC1` [Compound I-667], the half-maximal inhibitory concentration (IC50) is 8 nM.

On to `C[C@@H](CO[C@H]1CC[C@H](Oc2nc3c(F)cc(OC4CC4)c(F)c3n2C)CC1)NC(=O)CO` [Compound I-668], for which the IC50 came out at 7 nM.

For `CC(=O)N[C@@H](CO)CO[C@H]1CC[C@H](Oc2nc3cnc(OCC(F)F)c(Cl)c3n2C)CC1` [Compound I-669], the IC50 turned out to be 620 nM.

For `C[C@@H](CO[C@H]1CC[C@H](Oc2nc3c(F)cc(OCC(F)F)c(F)c3n2C)CC1)NC(N)=O` [Compound I-670], the IC50 turned out to be 11 nM.

Take `C[C@@H](CO[C@H]1CC[C@H](Oc2nc3c(F)cc(OC4CC4)c(F)c3n2C)CC1)NS(C)(=O)=O` [Compound I-671]: the IC50 stood at 11 nM.

`COC(=O)N[C@@H](C)CO[C@H]1CC[C@H](Oc2nc3c(F)cc(OCC(F)F)c(F)c3n2C)CC1` [Compound I-672]: the IC50 was 30 nM.

In the case of `CC(=O)N[C@@H](C)CO[C@H]1CC[C@H](Oc2nc3c(C(N)=O)cc(OC4CC4)c(F)c3n2C)CC1` [Compound I-673], the IC50 was 650 nM.

Consider `C[C@@H](CC[C@@H]1CC[C@@H](Oc2nc3c(F)cc(OCC(F)F)c(Cl)c3n2C)CO1)NC(N)=O` [Compound I-674], for which the IC50 was found to be 7 nM.

With `CC(=O)N[C@@H](C)[C@H](C)O[C@H]1CC[C@H](Oc2nc3cnc(OCC(F)F)c(Cl)c3n2C)CC1` [Compound I-675], the IC50 came to 18 nM.
